Experimental data published in patent US20050080140A1, “Method for treating or preventing inflammatory disorders” (AnGes MG, Inc., priority 2003, published 2005).

Experiments:
HEK-293 cells = experiment: cDNA microarray analysis of cells expressing intracellular PGI2 (PGISwt vs inactive PGISC441A); format: cell-based, human; details: ratio of PGISwt to PGISC441A, 36 h
Description: HEK-293 cells (1.2×10^4 cells/cm^2) were transfected with expression vector for PGISwt or PGISC441A using LipofectAMINE (Invitrogen) and maintained in DMEM containing 10% FBS, 2 mM L-glutamine, 100 U/ml penicillin and […] streptomycin for 36 h. Poly(A+) mRNA (1.5 μg) was prepared from3×10^6 cells using Isogen (Nippon Gene) and Oligotex-dT30 super mRNA purification kit (Takara, Tokyo, Japan). Samples were analyzed by gene expression microarray (GEM) DNA tip containing 9,182 human cDNA clones (HUMAN UniGEM V Ver2.0, IncyteGenomics, Palo Alto, Calif.). Conversion of poly(A+) mRNA to cDNA with incorporation of Cy3- or Cy5-labeled deoxynucleotide-triphosphates (dNTPs), hybridization to arrays coated on glass, quality control and normalization were performed by IncyteGenomics. All data analyses were performed using an average fold change of two assays, and data were expressed as the ratio of PGISwt to PGISC441A.
In order to identify the downstream mediators of intracellular PGI2-PPARδ signaling pathway, a cDNA microarray analysis of human cells expressing intracellular PGI2 was performed. Based on precious studies of the inventors (Hatae et al., J. Biol. Chem. (2001) 276: 46260-7), a human embryonic kidney cell line (HEK-293) transfected with the expression vector for wild-type PGIS (PGISwt) was used to achieve endogenous expression of intracellular PGI2.

COX-2 gene = experiment: RT-PCR analysis of COX-2 mRNA; format: cell-based, human; details: HUVEC, combination of TNF-α (1 ng/ml) and IL-1β (20 ng/ml), FIG. 5
Description: For analysis of IL-13, human vascular endothelial cells (1.2×10^4 cells/cm^2) were stimulated with cPGI (10 μM) for 12 h, and total RNA was prepared from stimulated cells with Isogen (Nippon Gene). For analysis of COX-2, human vascular endothelial cells (1.2×10^4 cells/cm^2) were pretreated with TNF-α (1 ng/ml) and IL-1b (20 ng/ml) for 1 h, and then treated with cPGI (0, 10 μM), anti-human IL-13 monoclonal antibody (0, 0.5 μg/ml) and control IgG (0, 0.5 μg/ml) for 12 h to prepare total RNA. The total RNA (0.5 μg) was used for analysis by SuperScript RT-PCR system (Invitrogen) according to the manufacturer's instructions. The oligonucleotide primers used were IL-13-s (5′-[…]-3′ (SEQ ID NO: 6); sense) and IL-13-as (5′-[…]-3′ (SEQ ID NO: 7); antisense) for human IL-13, β-actin-s (5′-[…]-3′ (SEQ ID NO: 8); sense) and β-actin-as (5′-[…]-3′ (SEQ ID NO: 9); antisense) for human β-actin, and COX-2-s (5′-[…]-3′ (SEQ ID NO: 10); sense) and COX-2-as (5′-[…]-3′ (SEQ ID NO: 11); antisense) for human COX-2. For each PCR amplification, 1 μl of cDNA was used in a 50 μl reaction. Reverse transcription-PCR (RT-PCR) for β-actin (25 cycles) was used as an internal control for mRNA abundance. For IL-13 and COX-2 genes, the number of cycles ranged from 25 to 45. […] Samples were normalized based on equivalent expression of β-actin.

[1] = system: adhesion between human vascular endothelial cells and monocytic leukocyte U937 cells; experiment: Adherence assay of U937 cells to endothelial monolayers; format: cell-based; details: HUVEC, 24 h
Description: HUVEC (2.5×10^4 cells/cm^2) were cultured in 12-well plates. After 24 h, confluent monolayers were used for adherence assays. Monolayers were preincubated in EGM-2 containing 2% FBS, 0 or 10 ng/ml TNF-α, 0 or 10 ng/ml IL-13 and 0 or 10 μM cPGI with or without anti-IL-13 monoclonal antibody (0.5 μg/ml) at 37° C. for 0 to 24 h. Human monocyte leukocyte U937 cells were cultured in RPMI 1640 (Gibco-Invitrogen) containing 10% FBS, 100 U/ml penicillin and […] streptomycin , labeled with 2.5 μM calcein-AM (Molecular Probes, Eugene, Oreg.) at room temperature for 45 min, washed and resuspended in serum-free EGM-2. The calcein-labeled U937 cells (8×10^4 cells/well) were added to pretreated endothelial cells and incubated with cPGI (0, 10 μM), recombinant IL-13 (0, 10 ng/ml) and anti-IL-13 monoclonal antibody (0, 0.5 μg/ml). U937 cells were allowed to adhere to pretreated endothelial cells for 30 min at 37° C. Adherence was assessed with a fluorescence image analyzer (FLA-2000; Fujifilm, Tokyo, Japan). Plates were scanned before and after washing for total and adherent cells, respectively, and relative adherence was calculated (fold of control).

[2] = system: endogenous PGI2 production; experiment: PGI2 assay (6-keto-PGF1α ELISA); format: cell-based, human; details: HUVEC, TNF-α 0, 0.1, 1 or 10 ng/ml, 24 h, FIG. 4A
Description: (§1) Human vascular endothelial cells (1.2×10^4 cells/cm^2) were cultured in EGM-2 containing 2% FBS and several concentrations of cPGI with or without TNF-α for 24 h. Incubation media were collected and stored at −80° C. before assay. Amounts of IL-13 were measured with human IL-13 ELISA system (Amersham Pharmacia Biotech, Buckinghamshire, UK) and amounts of PGI2 were measured as the amounts of 6-keto-PGI1α, a stable metabolite of PGI2, with 6-keto-PGI1α ELISA kit (Cayman Chemical Co., Ann Arbor, Mich.) according to the manufacturers' instructions.
siRNA duplexes with the following sense and antisense sequences were made: PGIS1, 5′-[…]-3′ (SEQ ID NO: 12; sense) and 5′-[…]-3′ (SEQ ID NO: 13; antisense); PGIS2, 5′-[…]-3′ (SEQ ID NO: 14; sense) and 5′-[…]-3′ (SEQ ID NO: 15; antisense); PGIS3, 5′-[…]-3′ (SEQ ID NO: 16; sense) and 5′-[…] (SEQ ID NO: 17; antisense); and PGIS4, 5′-[…]-3′ (SEQ ID NO:, 18; sense) and 5′-[…]-3′ (SEQ ID NO: 19; antisense). siRNAs were synthesized and annealed by Dharmacon Research Inc. (Lafayette, CO). […] Microsomal fractions of the cells were prepared and analyzed by immunoblotting with anti-PGIS P4 polyclonal antibody as described previously (Hatae et al., J. Biol. Chem. (2001) 276: 46260-7). […] The incubation media were collected, and amounts of 6-keto-PGI1α or IL-13 were measured with ELISA kit.

PPRE (PPARδ activation) = experiment: PPREx3-luciferase reporter assay; format: cell-based, human; details: HUVEC treated with TNF-α 0-10 ng/ml, 24 h, FIG. 4B
Description: Primary cultured human umbilical vein endothelial cells (HUVEC) and human aortic endothelial cells (HAEC) were obtained from Kurabo Co. Ltd. (Tokyo, Japan) and were cultured in EGM-2 growth medium supplemented with 2% fetal bovine serum (FBS) and a mixture of growth factors according to the supplier's instructions. Total RNA from the cells in culture was prepared with Isogen (Nippon Gene, Tokyo, Japan). Human embryonic kidney HEK-293 cells were cultured in DMEM containing 10% FBS, 2 mM L-glutamine, 100 U/ml penicillin and […] streptomycin as described previously (Hatae et al., J. Biol. Chem. (2001) 276: 46260-7). […] HEK-293 cells were transfected with DNA using lipofectAMINE (Invitrogen, Carlsbad, Calif.) as described previously (Hatae et al., J. Biol. Chem. (2001) 276: 46260-7). Human vascular endothelial cells were transfected with TransIT LT-1 (PanVera Co., Madison, Wis.). Transfections were performed at a ratio of 1 μg of DNA to 3.0 μl of the reagents, and cells were incubated in serum-free EGM-2 at 37° C. for 5 h. Subsequently, cells were grown in fresh EGM-2 containing 2% FBS and a mixture of growth factors for 12 h before analysis. For reporter assay, human vascular endothelial cells (1.2×10^4 cells/cm^2) were cotransfected with 0.2 μg of the PPREx3-luciferase reporter vector and 0.1 μg of β-galactosidase expression vector by use of TransIT LT-1. After 17 h of transfection, cells were washed with PBS, incubated in EGM-2 containing 2% FBS and cPGI (0-100 μM) for 24 h at 37° C., and subjected to luciferase assay as described previously (Hatae et al., J. Biol. Chem. (2001) 276: 46260-7). The luciferase activity of the extract was normalized to β-galactosidase activity.

IL-13 = IL-13 ELISA of culture medium of human vascular endothelial cells; format: cell-based; details: HUVEC treated with TNF-α 0-10 ng/ml, 24 h, FIG. 4C
Description: as §1
(§2) siRNA duplexes with the following sense and antisense sequences were made: PGIS1, 5′-[…]-3′ (SEQ ID NO: 12; sense) and 5′-[…]-3′ (SEQ ID NO: 13; antisense); PGIS2, 5′-[…]-3′ (SEQ ID NO: 14; sense) and 5′-[…]-3′ (SEQ ID NO: 15; antisense); PGIS3, 5′-[…]-3′ (SEQ ID NO: 16; sense) and 5′-[…] (SEQ ID NO: 17; antisense); and PGIS4, 5′-[…]-3′ (SEQ ID NO:, 18; sense) and 5′-[…]-3′ (SEQ ID NO: 19; antisense). siRNAs were synthesized and annealed by Dharmacon Research Inc. (Lafayette, CO). Control non-silencing siRNA, a duplex of sense (5′-UUCUCCGAACGUGUCACGUdTdT-3′; SEQ ID NO: 20) and antisense (5′-ACGUGACACGUUCGGAGAAdTdT-3′; SEQ ID NO: 21) sequences, was purchase from Qiagen (Valencia, Calif.). The cells were initially transfected with 200 pmol per well of the annealed RNA mixture or the same amount of control siRNA using LipofectAMINE2000 (Invitrogen), and 12 h later secondly transfected with the same amount of siRNAs using HVJ-liposome transfection kit (GenomeONE; Ishihara Sangyo, Osaka, Japan) according to the manufacturers' instructions. The cells were retransfected with the siRNAs every 3 days using LipofectAMINE2000 and HVJ-liposome, and used for analyses 10 days after transfection. Microsomal fractions of the cells were prepared and analyzed by immunoblotting with anti-PGIS P4 polyclonal antibody as described previously (Hatae et al., J. Biol. Chem. (2001) 276: 46260-7). The cells treated with siRNAs for 10 days were cultured in fresh EGM-2 containing 2% FBS and TNF-α (0, 10 ng/ml). with or without cPGI (10 μM) for 24 h. The incubation media were collected, and amounts of 6-keto-PGI1α or IL-13 were measured with ELISA kit.

PGIS = experiment: RNAi silencing of PGIS, immunoblotting with anti-PGIS antibody; format: cell-based, human; details: HUVEC, siRNA treatment for 10 days, FIG. 6A
Description: as §2, with “The cells were retransfected with the siRNAs every 3 days using LipofectAMINE2000 and HVJ-liposome, and used for analyses 10 days after transfection.” left out, “The cells treated with siRNAs for 10 days were cultured in fresh EGM-2 containing 2% FBS and TNF-α (0, 10 ng/ml). with or without cPGI (10 μM) for 24 h.” left out

CCCCC[C@H](O)/C=C/[C@@H]1[C@H]2C/C(=C/CCCC(=O)O)O[C@H]2C[C@H]1O [PGI2, prostacyclin]
Differential expression, IL-13 (NM_002188) (HEK-293 cells): +11.0 | Differential expression, Sjogren syndrome antigen (BF897247) (HEK-293 cells): +2.8 | Differential expression, aldehyde dehydrogenase 1 family, member A1 (AI050734) (HEK-293 cells): +2.5 | Differential expression, butyrophilin, subfamily 3, member A2 (AA482308) (HEK-293 cells): +2.7 | Differential expression, isopentenyl-diphosphate delta isomerase (BF698441) (HEK-293 cells): +2.9 | Differential expression, mal T-cell differentiation protein (NM_022439) (HEK-293 cells): +7.0 mal

IL-1: Recombinant human IL-1β, proinflammatory cytokine
expression of COX-2 mRNA (COX-2 gene): induced

IL-13: recombinant human IL-13
TNF-α-induced monocytic leukocyte-endothelial cell adhesion ([1]; TNF-α 10 ng/ml plus antibody 0.5 μg/ml, cPGI 10 μM or IL-13 10 ng/ml, FIG. 4D lanes 3-5): inhibited

TNF-α
endogenous PGI2 production [2]: significantly induced | relative luciferase activity of reporter vector containing PPRE (PPRE (PPARδ activation)): increased | production of IL-13 (IL-13): increased | adhesion between U937 cells and endothelial cells ([1]; TNF-α 10 ng/ml alone, FIG. 4D lanes 1 and 2): increase adhesion | expression of COX-2 mRNA (COX-2 gene): induced

control siRNA: Control non-silencing siRNA duplex (SEQ ID NO: 20, 21) from Qiagen (chain 1 UUCUCCGAACGUGUCACGUNN; chain 2 ACGUGACACGUUCGGAGAANN; listed as RNA, chemistry not fully specified)
endogenous expression of PGIS (Western analysis) (PGIS): no effect
